Results on three compounds are retold here after ChEMBL document CHEMBL1240407, “Prevalence, resistance mechanisms, and susceptibility of multidrug-resistant bloodstream isolates of Pseudomonas aeruginosa” (2010).

Common to all, as to type: functional
For assay [1], the system named is Pseudomonas aeruginosa. Briefly: Antimicrobial activity against Pseudomonas aeruginosa isolate PA8721 harboring gyrA T83I and parC S87L mutant gene by Etest method.
Assay [2] concerns Pseudomonas aeruginosa. The assay can be described thus: Antimicrobial activity against Pseudomonas aeruginosa isolate PA1166 harboring gyrA T83I and parC S87L mutant gene by Etest method.
Assay [3] relates to Pseudomonas aeruginosa. The assay can be described thus: Antimicrobial activity against Pseudomonas aeruginosa isolate PA27853 by Etest method.
Assay [4] has as its system Pseudomonas aeruginosa. Briefly: Antimicrobial activity against Pseudomonas aeruginosa isolate PA5600 harboring gyrA T83I and parC S87L mutant gene by Etest method.
For assay [5], the system named is Pseudomonas aeruginosa. The assay can be described thus: Antimicrobial activity against Pseudomonas aeruginosa isolate PA641 parC P105T mutant gene by Etest method.
Assay [6] deals with Pseudomonas aeruginosa. The assay can be described thus: Antimicrobial activity against Pseudomonas aeruginosa isolate PA7461 harboring gyrA T83I and parC S87L mutant gene by Etest method.
In assay [7] the test system is Pseudomonas aeruginosa. The assay can be described thus: Antimicrobial activity against MexB overexpressing Pseudomonas aeruginosa isolate PA707 harboring gyrA T83I and parC S87L mutant gene by Etest method.
The subject of assay [8] is Pseudomonas aeruginosa. Briefly: Antimicrobial activity against Pseudomonas aeruginosa isolate PA5441 harboring gyrA T83I and parC S87L mutant gene by Etest method.
Assay [9] concerns Pseudomonas aeruginosa. The assay can be described thus: Antimicrobial activity against MexB overexpressing Pseudomonas aeruginosa isolate PA1327 harboring gyrA T83I and parC S87L mutant gene by Etest method.
Assay [10] has as its system Pseudomonas aeruginosa. Briefly: Antimicrobial activity against Pseudomonas aeruginosa isolate PA8858 harboring gyrA T83I and parC S87L mutant gene by Etest method.
Assay [11] concerns Pseudomonas aeruginosa. The assay can be described thus: Antimicrobial activity against Pseudomonas aeruginosa isolate PA8119 harboring gyrA T83I and parC S87L mutant gene by Etest method.
Assay [12] concerns Pseudomonas aeruginosa. The assay can be described thus: Antimicrobial activity against MexB overexpressing Pseudomonas aeruginosa isolate PA6218 harboring gyrA D87N mutant gene by Etest method.
Assay [13] has as its system Pseudomonas aeruginosa. Briefly: Antimicrobial activity against MexB overexpressing Pseudomonas aeruginosa isolate PA1378 harboring gyrA T83I mutant gene by Etest method.
Assay [14] relates to Pseudomonas aeruginosa. Briefly: Antimicrobial activity against MexB overexpressing Pseudomonas aeruginosa isolate PA9087 harboring gyrA T83I mutant gene by Etest method.
Assay [15] relates to Pseudomonas aeruginosa. The assay can be described thus: Antimicrobial activity against MexB overexpressing Pseudomonas aeruginosa isolate PA1328 harboring gyrA T83I and parC S87L mutant gene by Etest method.
The subject of assay [16] is Pseudomonas aeruginosa. Briefly: Antimicrobial activity against Pseudomonas aeruginosa isolate PA5513 harboring gyrA T83I and parC S87L mutant gene by Etest method.
The subject of assay [17] is Pseudomonas aeruginosa. The assay can be described thus: Antimicrobial activity against MexB overexpressing Pseudomonas aeruginosa isolate PA8108 harboring gyrA T83I mutant gene by Etest method.
The subject of assay [18] is Pseudomonas aeruginosa. The assay can be described thus: Antimicrobial activity against MexB overexpressing Pseudomonas aeruginosa isolate PA1165 harboring gyrA T83I and parC S87L mutant gene by Etest method.
Assay [19] concerns Pseudomonas aeruginosa. Briefly: Antimicrobial activity against Pseudomonas aeruginosa isolate PA9019 harboring gyrA D87G and parC S87L mutant gene by Etest method.

In brackets after ≈: the same amount, converted by molar mass. Where only a bound is given, the exact number is not on record here.

Usually MIC90 stands for an inhibitory concentration at the 90% level, which refers to growth in some studies and to a panel of isolates in others. High values mean weaker potency, low ones greater potency. The term MIC50 denotes an inhibitory concentration at the 50% level, which refers to growth in some studies and to a panel of isolates in others. A lower MIC50 goes with higher susceptibility. As for `C[C@@H](O)[C@H]1C(=O)N2C(C(=O)O)=C(S[C@@H]3CN[C@H](CNS(N)(=O)=O)C3)[C@H](C)[C@H]12` [DORIPENEM], the MIC90 against Pseudomonas aeruginosa [1] is 32 µg/mL (≈ 76.1 µM); with Pseudomonas aeruginosa [5] it was > 32 µg/mL; with Pseudomonas aeruginosa [7] it was > 32 µg/mL; in the assay with Pseudomonas aeruginosa [12] it was > 32 µg/mL; in the assay with Pseudomonas aeruginosa [13] it was > 32 µg/mL; in the assay with Pseudomonas aeruginosa [16] it was > 32 µg/mL. In addition, the MIC90 against Pseudomonas aeruginosa [17] and against Pseudomonas aeruginosa [19] was > 32 µg/mL throughout. For the same compound, the MIC50 was determined as 24 µg/mL (≈ 57.1 µM) in the assay on Pseudomonas aeruginosa [2]; 0.19 µg/mL (≈ 0.452 µM) with Pseudomonas aeruginosa [3]; 4 µg/mL (≈ 9.51 µM) with Pseudomonas aeruginosa [4]; 12 µg/mL (≈ 28.5 µM) against Pseudomonas aeruginosa [6]; 4 µg/mL (≈ 9.51 µM) against Pseudomonas aeruginosa [8]; 8 µg/mL (≈ 19 µM) against Pseudomonas aeruginosa [9]. Besides, the MIC50 in the assay on Pseudomonas aeruginosa [10] worked out at 8 µg/mL (≈ 19 µM); against Pseudomonas aeruginosa [11] it was 16 µg/mL (≈ 38 µM); against Pseudomonas aeruginosa [14], 6 µg/mL (≈ 14.3 µM); in the assay with Pseudomonas aeruginosa [15] it was 3 µg/mL (≈ 7.13 µM); with Pseudomonas aeruginosa [18], 12 µg/mL (≈ 28.5 µM).

Take COLISTIN: the MIC50 against Pseudomonas aeruginosa [1] turned out to be 1.5 µg/mL; with Pseudomonas aeruginosa [2] it was 1 µg/mL; with Pseudomonas aeruginosa [3], 1.5 µg/mL; against Pseudomonas aeruginosa [4] it was 1 µg/mL; against Pseudomonas aeruginosa [5], 1.5 µg/mL; in the assay with Pseudomonas aeruginosa [6], 2 µg/mL. In addition, the MIC50 came out at 1 µg/mL against Pseudomonas aeruginosa [7]; 1.5 µg/mL with Pseudomonas aeruginosa [8]; 2 µg/mL against Pseudomonas aeruginosa [9]; 1.5 µg/mL against Pseudomonas aeruginosa [10]; 1.5 µg/mL in the assay with Pseudomonas aeruginosa [11]; 3 µg/mL against Pseudomonas aeruginosa [12]. The MIC50 was 2 µg/mL against Pseudomonas aeruginosa [13]; 0.38 µg/mL in the assay with Pseudomonas aeruginosa [14]; 1.5 µg/mL against Pseudomonas aeruginosa [15]; 1 µg/mL against Pseudomonas aeruginosa [16]; 0.25 µg/mL in the assay on Pseudomonas aeruginosa [17]; 1.5 µg/mL in the assay with Pseudomonas aeruginosa [18]. The MIC50 with Pseudomonas aeruginosa [19] was 1.5 µg/mL.

For POLYMYXIN B, the MIC50 was determined as 1.5 µg/mL against Pseudomonas aeruginosa [1]; 0.75 µg/mL against Pseudomonas aeruginosa [2]; 1.5 µg/mL in the assay with Pseudomonas aeruginosa [3]; 1.5 µg/mL in the assay on Pseudomonas aeruginosa [4]; 1 µg/mL in the assay on Pseudomonas aeruginosa [5]; 0.75 µg/mL against Pseudomonas aeruginosa [7]. Moreover, the MIC50 with Pseudomonas aeruginosa [8] turned out to be 1.5 µg/mL; with Pseudomonas aeruginosa [9], 1 µg/mL; against Pseudomonas aeruginosa [11], 1.5 µg/mL; against Pseudomonas aeruginosa [12], 1.5 µg/mL; against Pseudomonas aeruginosa [13] it was 1.5 µg/mL; with Pseudomonas aeruginosa [14] it was 0.5 µg/mL. Moreover, the MIC50 in the assay on Pseudomonas aeruginosa [15] is 1.5 µg/mL; against Pseudomonas aeruginosa [16], 1 µg/mL; against Pseudomonas aeruginosa [17], 0.25 µg/mL; with Pseudomonas aeruginosa [18] it was 1.5 µg/mL; in the assay on Pseudomonas aeruginosa [19] it was 1 µg/mL.
